Among the test systems are CAKI-1 renal; CCRF-CEM leukemia; COLO 205 colon; IGROV1 ovarian; KM12 colon; MALME-3M melanoma; MOLT-4 leukemia; NCI-H226 lung; RXF 393 renal; SF-268 CNS; SK-MEL-28 melanoma; U251 CNS; UACC-257 melanoma; UO-31 renal; 786-0 renal; DU-145 prostate; PC-3 prostate; TK-10 renal; BT-549 breast.
Assay in all cases: NCI tumour cell line growth inhibition, 48 h

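Growth conditions: 96-well plates. Treatment: test compound, 48 hours, 5 concentrations. Analysis: linear interpolation between bracketing concentrations; unreached endpoints set to highest concentration. TGI denotes the concentration required for complete inhibition of growth.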

Our source for the TGI values is PubChem BioAssay (NCI).

For `O=C(O)c1ccc(Nc2c3ccccc3nc3ccccc23)cc1`, the TGI with CAKI-1 renal, with CCRF-CEM leukemia, with COLO 205 colon, in the experiment with IGROV1 ovarian, in the experiment on KM12 colon and in the experiment with MALME-3M melanoma was more than 100 µM in each case. For the same molecule, the TGI was more than 83.9 µM in the experiment with MOLT-4 leukemia; more than 100 µM in the experiment on NCI-H226 lung; more than 100 µM with RXF 393 renal; more than 100 µM with SF-268 CNS; more than 100 µM with SK-MEL-28 melanoma; more than 100 µM with U251 CNS. In addition, the TGI in the experiment on UACC-257 melanoma and in the experiment on UO-31 renal was more than 100 µM throughout.
As to `CCCCN(CCCC)CC(O)c1cc(-c2ccc(C(F)(F)F)cc2)nc(-c2ccc(C(F)(F)F)cc2)c1` (stereo not drawn), the TGI in the experiment with 786-0 renal, in the experiment with CAKI-1 renal, in the experiment on CCRF-CEM leukemia, in the experiment with COLO 205 colon, in the experiment with DU-145 prostate and in the experiment on IGROV1 ovarian was more than 100 µM throughout. Besides, the TGI in the experiment on MALME-3M melanoma, in the experiment with MOLT-4 leukemia, with PC-3 prostate, in the experiment with SF-268 CNS, in the experiment on SK-MEL-28 melanoma and with TK-10 renal was more than 100 µM in each case. In addition, the TGI with U251 CNS, in the experiment with UACC-257 melanoma and in the experiment on UO-31 renal was more than 100 µM each time.
On to `C=C(CCC/C(C)=C/C=C/[C@]1(C)CCCc2ccoc21)CC(=O)O`, for which the TGI was more than 100 µM in the experiment with 786-0 renal; more than 100 µM with BT-549 breast; more than 100 µM with CAKI-1 renal; more than 100 µM with CCRF-CEM leukemia; more than 100 µM with COLO 205 colon; 98.4 µM with DU-145 prostate. For the same molecule, the TGI in the experiment with IGROV1 ovarian, in the experiment on KM12 colon, in the experiment with MALME-3M melanoma, in the experiment on MOLT-4 leukemia, in the experiment with NCI-H226 lung and in the experiment on PC-3 prostate was more than 100 µM throughout. The TGI in the experiment on RXF 393 renal, with SF-268 CNS, with SK-MEL-28 melanoma, in the experiment on TK-10 renal, in the experiment with U251 CNS and in the experiment with UACC-257 melanoma was more than 100 µM in each case. The same molecule returned a TGI in the experiment with UO-31 renal of more than 100 µM.
For the molecule `COc1ccc(C2COc3cc(OC(C)=O)c(OC(C)=O)cc3C2)cc1` (stereo not drawn), the TGI in the experiment on CAKI-1 renal amounted to 51.1 µM; with CCRF-CEM leukemia, 16.4 µM; with COLO 205 colon, 44.4 µM; in the experiment on IGROV1 ovarian it was 55.9 µM; in the experiment on KM12 colon it was 34 µM; with MALME-3M melanoma, 44.8 µM. The TGI in the experiment on MOLT-4 leukemia was found to be 29.1 µM; in the experiment on NCI-H226 lung, 52.9 µM; in the experiment with RXF 393 renal it was 34.1 µM; in the experiment with SF-268 CNS, 37 µM; in the experiment on SK-MEL-28 melanoma it was 46.9 µM; with U251 CNS it was 24.3 µM. Moreover, the TGI in the experiment with UACC-257 melanoma is 46.5 µM; in the experiment with UO-31 renal it was 40.6 µM.
Take `CCN(CC)CC1CCCCCCCCCCC1=O` (stereo not drawn): the TGI in the experiment with 786-0 renal, in the experiment with CCRF-CEM leukemia, in the experiment on COLO 205 colon, in the experiment with IGROV1 ovarian, in the experiment with KM12 colon and with MALME-3M melanoma was more than 100 µM throughout. Besides, the TGI with MOLT-4 leukemia, in the experiment on NCI-H226 lung, with SF-268 CNS, with SK-MEL-28 melanoma, in the experiment on TK-10 renal and in the experiment on U251 CNS was more than 100 µM each time. For the same molecule, the TGI with UACC-257 melanoma and in the experiment with UO-31 renal was more than 100 µM throughout.
For `CO/N=C/c1cc(OC)c(OC)c(OC)c1`, the TGI with 786-0 renal, in the experiment on CAKI-1 renal, in the experiment on CCRF-CEM leukemia, in the experiment on COLO 205 colon, in the experiment with IGROV1 ovarian and in the experiment on KM12 colon was more than 100 µM in each case. The TGI in the experiment with MALME-3M melanoma, with MOLT-4 leukemia, in the experiment with NCI-H226 lung, in the experiment on SF-268 CNS, with SK-MEL-28 melanoma and in the experiment with TK-10 renal was more than 100 µM in each case. For the same molecule, the TGI in the experiment on U251 CNS, in the experiment on UACC-257 melanoma and with UO-31 renal was more than 100 µM each time.
With `FC(F)(F)c1ccc(N=C/C=C(/Nc2ccc(C(F)(F)F)cc2)c2ccc(Cl)cc2)cc1`, the TGI with 786-0 renal is 37.9 µM; with CAKI-1 renal, 19.6 µM; in the experiment on CCRF-CEM leukemia, more than 100 µM; in the experiment with COLO 205 colon, 32.6 µM; in the experiment with DU-145 prostate, 31.8 µM; in the experiment with IGROV1 ovarian it was 25.5 µM. Moreover, the TGI with KM12 colon is 28.6 µM; in the experiment on MALME-3M melanoma, 40.4 µM; in the experiment on MOLT-4 leukemia, more than 100 µM; in the experiment with NCI-H226 lung it was 32.3 µM; in the experiment on PC-3 prostate, 75.8 µM; in the experiment with RXF 393 renal, 26.4 µM. The TGI in the experiment on SF-268 CNS is 33.2 µM; in the experiment on SK-MEL-28 melanoma it was 33.4 µM; in the experiment on TK-10 renal, 69.1 µM; with U251 CNS, 28.2 µM; in the experiment on UACC-257 melanoma, 38.3 µM; in the experiment with UO-31 renal, more than 100 µM.
Regarding `COc1ccc(N2C(=O)/C(=C(\C)c3cc4ccccc4oc3=O)N=C2c2cc([N+](=O)[O-])ccc2Cl)cc1`, the TGI in the experiment on CAKI-1 renal was more than 100 µM; in the experiment with CCRF-CEM leukemia, more than 100 µM; in the experiment with COLO 205 colon, more than 100 µM; in the experiment with IGROV1 ovarian it was more than 100 µM; in the experiment with KM12 colon it was 87.4 µM; with MALME-3M melanoma, more than 100 µM. For the same molecule, the TGI in the experiment with MOLT-4 leukemia, in the experiment on NCI-H226 lung, in the experiment with SF-268 CNS, with SK-MEL-28 melanoma, with U251 CNS and with UACC-257 melanoma was more than 100 µM in each case. The molecule further displayed a TGI with UO-31 renal of more than 100 µM.
Turning to `COc1cc2cc3c4c(cc(OC)c(OC)c4c2cc1OC)CCN3C(=O)OCCN1CCNCC1`, the TGI with 786-0 renal came to 23.8 µM; in the experiment on CAKI-1 renal it was 28.5 µM; in the experiment on CCRF-CEM leukemia it was 44.6 µM; with COLO 205 colon, 20.9 µM; in the experiment with IGROV1 ovarian it was 32.2 µM; in the experiment with KM12 colon it was 28.3 µM. The TGI with MALME-3M melanoma came out at 31 µM; with MOLT-4 leukemia it was 34.8 µM; in the experiment on NCI-H226 lung, 28.1 µM; with RXF 393 renal, 27.9 µM; with SF-268 CNS it was 23.3 µM; in the experiment with SK-MEL-28 melanoma, 36.6 µM. The TGI in the experiment with TK-10 renal is 28.3 µM; in the experiment on U251 CNS, 28.9 µM; in the experiment on UACC-257 melanoma, 29.1 µM; in the experiment on UO-31 renal, 28.1 µM.
